Results as given in patent publication US6780871B2, “Methods and compositions for treating addiction disorders” (Albany Medical College, priority 2001, dated 2004).

Tested on: nicotine self-administration
Test: nicotine self-administration
Type: in vivo, rat
Settings: Example 7, FIGS. 11-12: mecamylamine 0.1 mg/kg i.p., 18-methoxycoronaridine 0.5 mg/kg i.p., dextromethorphan 0.5 mg/kg s.c., bupropion 5 mg/kg i.p.; 5-8 rats

SMILES: COCC[C@H]1CC2CN3CCc4c([nH]c5ccccc45)[C@](C(=O)OC)(C2)[C@H]13 [18-methoxycoronaridine]
- effect on nicotine self-administration (percent of baseline): none of the drugs administered alone, significantly decreased
